Test results as given in patent publication US10723751B2 (priority 2013, dated 2020).
Where two headings read alike, the source gives them in different places.

Assays:
[1] = test system: Pseudomonas Aeruginosa; test: Aerobic Culture and Mic from ear swab
[2] = known substances; cited from earlier work
[3] = test system: Candida albicans; test: Treatment of recurring Candida albicans vaginal yeast infection; type: in vivo, human
Description: A volunteer 57 kg body weight with frequent recurring vaginal Candida albicans infection was diagnosed and treated by their gynecologist over a period of 15 years. The reccurrence frequency was 2-3 flare ups every year for the past 15 years. […] However, 3-6 months later the infection would again appear. Chlorhexidine wash was also tried to prevent recurrence to no effect.
No flare-up has been detected for at least three years. No other treatment was used since there had been no recurrence.

[4] = test system: respiratory infection; test: Treatment of therapy resistant respiratory infection in a cat; type: in vivo; settings: clavamox oral, five days later convenia injections
Experimental: A two year old domestic short hair cat, six pounds, body weight, temp 102° F. emaciated cat came from a cat holding facility and was FIV and FELV negative. Its clinical symptoms: very severe wheezing respiration, very moist cough, frequent sneezing all day beginning 10 days previously. The cat had been treated in another hospital previously with antibiotics: first, clavamox oral/contains amoxicillin and with β-lactamase-inhibiting effect clavulanic acid known as for powerful, broad-spectrum antimicrobial activity. […] CBC chemistry blood work was performed. The only abnormality was a 40% increase in Monocytes above the highest normal, and mild anemia.

[5] = test system: Rhodococcus equi; test: Antibiotic sensitivity testing of the foal's bacterial culture; type: cell-based
[6] = cited from earlier work
[7] = test system: herpes simplex labialis; test: Treatment of herpes simplex labialis; type: in vivo, human
Description: A volunteer, 54 kg suffered from recurring herpes outbreaks on the lip. The outbreaks happened about every two years and were associated with immune compromised conditions like stress, concurrent upper respiratory infection and menstrual cycles. The outbreaks last approximately 7-9 days and no spontaneous remission of an outbreak had occurred.
The outbreaks always followed a predictable progression and included a tingling sensation, redness and swelling of about 5 mm area on upper right side middle of the lip and 2-4 days after the onset blisters appear that turns into a scab that last about 5 days. The only medicine that could slightly alter this course was Zovirax crema/acyclovir/if the treatment began at the first sign of an outbreak. No other medicine had any effect on alleviating symptoms. With the treatment of Zovirax the blister size smaller (about 4 mm in diameter) and the duration of the outbreak was shorter (to approximately 5 days).
Topical and oral cyanogenic composition medications were applied simultaneously with no other medication.

[8] = Treatment of chronic suppurative prostatitis / prostate abscess in a dog; settings: in vivo
Experimental: An eight year old Akita dog presented suffering from chronic, recurring prostatitis with typical clinical symptoms associated with the condition. […] This condition had worsened in the previous eight months, causing significant suffering by the pet and frustration to the dog's owner.
In the second week the dose was adjusted to 5 mg/kg inj. twice/day. […] The treatment continued in the 3rd week with 2 mg/bw kg dose twice/day.

[9] = test system: Kennel cough, Giardia and Isospora infections; test: Treatment of Kennel cough, Giardia and Isospora infections in a dog
[10] = test system: bacterial pneumonia; test: Treatment of bacterial pneumonia in a cat; type: in vivo; settings: before the cyanogenic composition

## CC1=C(C(=O)O)N2C(=O)[C@@H](NC(=O)[C@H](N)c3ccc(O)cc3)[C@H]2SC1 [cephadroxil]
[1]; ear swab isolate
  sensitive / resistant: R

## [Cl-].[Na+] [Table salt]
[2]
  LD50: 300 mg/kg

## gentamicin
[1]; ear swab isolate
  sensitive / resistant: S
[1]; ear swab isolate, heavy growth
  MIC: <= 2 ug/ml

## CO/N=C(\C(=O)N[C@@H]1C(=O)N2C(C(=O)O)=C(CSC(=O)c3ccco3)CS[C@H]12)c1csc(N)n1 [ceftiofur]
[1]; Pseudomonas aeruginosa
  MIC: ≥ 8 µg/mL
[1]; ear swab isolate
  sensitive / resistant: R

## Cc1nnc(SCC2=C(C(=O)O)N3C(=O)[C@@H](NC(=O)Cn4cnnn4)[C@H]3SC2)s1 [cefazolin]
[1]; ear swab isolate
  sensitive / resistant: R

## [H]/N=C(\N/C(=N/[H])NCCCCCCNC(=N)NC(=N)Nc1ccc(Cl)cc1)Nc1ccc(Cl)cc1 [Chlorhexidine wash, Chlorhexidine]
[3]; in vivo
  prevention of recurrence: no effect

## CO/N=C(/C(=O)N[C@@H]1C(=O)N2C(C(=O)O)=C([C@@H]3CCCO3)CS[C@H]12)c1csc(N)n1 [cefovecin]
[1]; ear swab isolate
  sensitive / resistant: R

## Clc1ccccc1C(c1ccccc1)(c1ccccc1)n1ccnc1 [lotrimazole]
[3]; oral capsule and cream 5-7 days, infection again after 3-6 months
  outcome of previous treatment: good symptomatic response

## CO/N=C(/C(=O)N[C@@H]1C(=O)N2C(C(=O)[O-])=C([C@@H]3CCCO3)CS[C@H]12)c1csc(N)n1.[Na+] [convenia]
[4]
  outcome of previous antibiotic treatment: the condition continued to worsen

## CO[C@H]1/C=C/O[C@@]2(C)Oc3c(C)c(O)c4c(O)c(c(/C=N/N5CCN(C)CC5)c(O)c4c3C2=O)NC(=O)/C(C)=C\C=C\[C@H](C)[C@H](O)[C@@H](C)[C@@H](O)[C@@H](C)[C@H](OC(C)=O)[C@@H]1C [rifampin]
[5]
  antibiotic sensitivity: resistance

## N#C[C@H](O[C@@H]1O[C@H](CO[C@@H]2O[C@H](CO)[C@@H](O)[C@H](O)[C@H]2O)[C@@H](O)[C@H](O)[C@H]1O)c1ccccc1 [amygdalin]
[6]; literature
  LD50: about 900 mg/body weight kg
[6]; oral, scientific literature
  LD 50 of oral amygdalin: 400 to 900 mg/kg

## COCC1=C(C(=O)O)N2C(=O)[C@@H](NC(=O)/C(=N\OC)c3csc(N)n3)[C@H]2SC1 [cefpodoxime]
[1]; Pseudomonas aeruginosa
  MIC: ≥ 8 µg/mL
[1]; ear swab isolate
  sensitive / resistant: R

## CO[C@@]1(NC(=O)Cc2cccs2)C(=O)N2C(C(=O)O)=C(COC(N)=O)CS[C@@H]21 [cefoxitin]
[1]; Pseudomonas aeruginosa
  MIC: ≥ 32 µg/mL
[1]; ear swab isolate
  sensitive / resistant: R

## NCC[C@H](O)C(=O)N[C@@H]1C[C@H](N)[C@@H](O[C@H]2O[C@H](CN)[C@@H](O)[C@H](O)[C@H]2O)[C@H](O)[C@H]1O[C@H]1O[C@H](CO)[C@@H](O)[C@H](N)[C@H]1O [amikacin]
[1]; Pseudomonas aeruginosa
  MIC: ≤ 8 µg/mL
[1]; ear swab isolate
  sensitive / resistant: S

## CC1=C(C(=O)O)N2C(=O)[C@@H](NC(=O)[C@H](N)c3ccccc3)[C@H]2SC1 [cephalexin]
[1]; ear swab isolate
  sensitive / resistant: R

## Nc1nc2c(ncn2COCCO)c(=O)[nH]1 [Zovirax, acyclovir]
[7]; treatment begun at first sign of an outbreak
  blister size in diameter: about 4 mm
[7]; untreated approximately 7-9 days
  duration of the outbreak: about 5 days

## CCN1CCN(c2cc3c(cc2F)c(=O)c(C(=O)O)cn3C2CC2)CC1 [enrofloxacin]
[1]; Pseudomonas aeruginosa
  MIC: ≤ 0.5 µg/mL
[1]; ear swab isolate
  sensitive / resistant: S
[8]
  outcome of previous antibiotic treatment: only temporary mild improvement, followed by a quick relapse
[9]; switched to Enrofloxacin, Clavomox continued
  outcome of previous treatment: the symptoms continued to worsen

## CC(=O)Oc1ccccc1C(=O)O [aspirin]
[2]
  LD50: 200 to 1200 mg/kg

## CC[C@H]1OC(=O)[C@H](C)[C@@H](O[C@H]2C[C@@](C)(OC)[C@@H](O)[C@H](C)O2)[C@H](C)[C@@H](O[C@@H]2O[C@H](C)C[C@H](N(C)C)[C@H]2O)[C@](C)(O)C[C@@H](C)C(=O)[C@H](C)[C@@H](O)[C@]1(C)O [erythromycin]
[5]
  antibiotic sensitivity: resistance

## CC1(C)S[C@@H]2[C@H](NC(=O)[C@H](N)c3ccc(O)cc3)C(=O)N2[C@H]1C(=O)O [amoxicillin]
[1]; ear swab isolate
  sensitive / resistant: R
[10]
  outcome of previous treatment: slight improvement followed by a relapse

## CC[C@H]1OC(=O)[C@H](C)[C@@H](O[C@H]2C[C@@](C)(OC)[C@@H](O)[C@H](C)O2)[C@H](C)[C@@H](O[C@@H]2O[C@H](C)C[C@H](N(C)C)[C@H]2O)[C@](C)(O)C[C@@H](C)CN(C)[C@H](C)[C@@H](O)[C@]1(C)O [Azithromycin]
[9]; Azithromycin and Clavamox at therapeutic dose, about 2 weeks
  outcome of previous treatment: the symptoms did not abate

## CN1CCN(c2c(F)cc3c(=O)c(C(=O)O)cn4c3c2OCN4C)CC1 [marbofloxacin]
[1]; Pseudomonas aeruginosa
  MIC: ≤ 1 µg/mL
[1]; ear swab isolate
  sensitive / resistant: S

## CC1(C)S[C@@H]2[C@H](NC(=O)[C@H](N)c3ccccc3)C(=O)N2[C@H]1C(=O)O [ampicillin]
[1]; ear swab isolate
  sensitive / resistant: R
